Counter-ions that a name gives are not always drawn.
What was measured:
[1] = biological target: T1, wild type human RORγt LBD (Homo sapiens, UniProt P51449); experiment: RORγt Reporter Assay (GAL4-RORγt LBD luciferase in HEK293T cells); format: cell-based; details: HEK293T cells; for IC50: compounds for 24 hours, read-out: RORγt reporter Assay, IC50; for inhibition at 6 µM: HEK-293T, read-out: RORγt reporter Assay, % inhibition @ 6 µM, @ 6 µM
T1 construct: expressed in transfected cells; host or cells: HEK293T
T1 sequence (P51449 269-508 limits assumed): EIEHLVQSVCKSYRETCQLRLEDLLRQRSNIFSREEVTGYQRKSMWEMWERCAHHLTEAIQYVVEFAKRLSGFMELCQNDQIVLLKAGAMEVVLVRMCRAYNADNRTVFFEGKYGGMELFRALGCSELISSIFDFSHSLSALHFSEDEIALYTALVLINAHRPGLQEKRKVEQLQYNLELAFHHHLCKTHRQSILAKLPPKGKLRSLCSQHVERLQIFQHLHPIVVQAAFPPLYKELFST
Outline: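 HEK293T cells transiently co-transfected with GAL4-DBD–human RORγt LBD (or AF2 mutant) and GAL4-responsive firefly luciferase reporter; renilla luciferase normalised transfection and viability. Compounds applied 24 h in 5% lipid-reduced FCS; firefly/renilla ratio plotted against concentration.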

[2] = tested on: IL-17 production by CD4 T cells; experiment: Human Th17 Assay (IL-17 production by CD4 T cells under Th17 differentiation conditions); format: cell-based; details: 3 days, IL-17 in supernatant
Method: The human Th17 assay tests the effect of RORγt modulatory compounds on IL-17 production by CD4 T cells under conditions which favor Th17 differentiation. Total CD4^+ T cells were isolated from the peripheral blood mononuclear cells (PBMC) of healthy donors using a CD4^+ T cell isolation kit II, following the manufacturer's instructions (Miltenyi Biotec). […] 50 µL of compound at titrated concentrations in DMSO were added into each well at final DMSO concentration at 0.2%. Cells were incubated for 1 hour, then 50 µL of Th17 cell differentiation medium was added to each well. The final concentrations of antibodies and cytokines (R&D Systems) in differentiation medium were: 3x10^6/mL anti-CD3/CD28 beads (prepared using human T cell activation/expansion kit, Miltenyi Biotec), 10 µg/mL anti-IL4, 10 µg/mL anti-IFNγ, 10 ng/mL […], 10 ng/mL IL23, 50 ng/mL IL6, 3 ng/mL TGFβ and 20 U/mL IL2. Cells were cultured at 37 °C and 5% CO2 for 3 days. Supernatants were collected and the accumulated IL-17 in culture was measured by using MULTI-SPOT® Cytokine Plate following manufacture's instruction (Meso Scale Discovery). The plate was read using Sector Imager 6000, and IL-17 concentration was extrapolated from the standard curve. The IC50s were determined by GraphPad.

[3] = biological target: T2, wild type human RORγt ligand binding domain (RORγt LBD) (Homo sapiens, UniProt P51449); experiment: RORγt ThermoFluor® Assay (thermal shift, binding affinity); details: pH 7.0, estimated from concentration response curves
T2 construct: His-tag (N); TurboTEV protease cleavage site (ENLYFQG) (N); made in house; host or cells: E. coli (pHIS1, modified pET expression vector)
T2 sequence (P51449 269-508 limits assumed): T1 sequence (P51449 269-508 limits assumed)
Outline: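 Thermal shift assay on 0.065 mg/mL RORγt LBD with 60 µM 1,8-ANS in 100 mM Hepes pH 7.0, 10 mM NaCl, 2.5 mM GSH, 0.002% Tween-20. Heated at 1 °C/min, fluorescence read at 500 nm.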

IC50 [1]	inhibition at 6 µM [1]	IC50 ([2]; Homo sapiens, CD4+ T, 72 h)	Kd [3]	RORγt reporter Assay, % inhibition @ 6 µM [1]	IC50 [2]	Structure (SMILES)	IC50 ([2]; 72 h)
160 nM	89%	400 nM	130 nM	–	–	COc1nc2ccc(C(O)(c3cncn3C)C3CCN(C(C)=O)CC3)cc2c(Cl)c1-c1cccc(C(F)(F)F)c1 (single isomer, unassigned) [Example 1b, 1-(4-((4-Chloro-2-methoxy-3-(3-(trifluoromethyl)phenyl)quinolin-6-yl)(hydroxy)(1-methyl-1H-imidazol-5-yl)methyl)piperidin-1-yl)ethanone]	–
110 nM	–	–	33 nM	95%	310 nM	COc1nc2ccc(C(O)(c3cncn3C)C3CCN(C(C)=O)CC3)cc2c(Cl)c1-c1cccc(C(F)(F)F)c1 (single isomer, unassigned) [Example 1c, 1-(4-((4-Chloro-2-methoxy-3-(3-(trifluoromethyl)phenyl)quinolin-6-yl)(hydroxy)(1-methyl-1H-imidazol-5-yl)methyl)piperidin-1-yl)ethanone]	–
200 nM	91%	–	130 nM	–	2900 nM	COc1nc2ccc(C(O)(c3cncn3C)C3CCN(C(C)=O)CC3)cc2c(C#N)c1-c1cccc(C(F)(F)F)c1 (single isomer, unassigned) [Example 2b, 6-((1-Acetylpiperidin-4-yl)(hydroxy)(1-methyl-1H-imidazol-5-yl)methyl)-2-methoxy-3-(3-(trifluoromethyl)phenyl)quinoline-4-carbonitrile]	–
170 nM	–	–	140 nM	95%	670 nM	COc1nc2ccc(C(O)(c3cncn3C)C3CCN(C(C)=O)CC3)cc2c(C#N)c1-c1cccc(C(F)(F)F)c1 (single isomer, unassigned) [Example 2c, 6-((1-Acetylpiperidin-4-yl)(hydroxy)(1-methyl-1H-imidazol-5-yl)methyl)-2-methoxy-3-(3-(trifluoromethyl)phenyl)quinoline-4-carbonitrile]	–
3 nM	96%	–	0.56 nM	–	13 nM	COc1nc2ccc(C(O)(c3cncn3C)c3cnnn3C)cc2c(Cl)c1-c1cccc(C(F)(F)F)c1 (single isomer, unassigned) [Example 3b, (4-Chloro-2-methoxy-3-(3-(trifluoromethyl)phenyl)quinolin-6-yl)(1-methyl-1H-1,2,3-triazol-5-yl)(1-methyl-1H-imidazol-5-yl)methanol]	–
–	–	210 nM	–	103%	–	COc1c(-c2ccccc2)c(Cl)nc2ccc(C(O)(c3cnnn3C)c3cnc(C)n3C)cc12 (single isomer, unassigned) [Example 40c, (2-Chloro-4-metboxy-3-phenylquinolin-6-yl)(1,2-dimethyl-1H-imidazol-5-yl)(1-methyl-1H-1,2,3-triazol-5-yl)methanol]	–
–	–	–	–	–	–	Cn1cncc1C(O)(c1ccc(Cl)cc1)c1ccc2nc(Cl)c(-c3ccccc3)c(Cl)c2c1 (stereo not drawn) [Example 65, (4-Chlorophenyl)(2,4-dichloro-3-phenylquinolin-6-yl)(1-methyl-1H-imidazol-5-yl)methanol]	1800 nM
–	–	–	–	–	–	Cc1nc(C)c(C(O)(c2ccc3nc(Cl)c(-c4ccccc4)c(Cl)c3c2)c2cncn2C)s1 (stereo not drawn) [Example 68, (2,4-Dichloro-3-phenylquinolin-6-yl)(2,4-dimethylthiazol-5-yl)(1-methyl-1H-imidazol-5-yl)methanol]	20 nM
> 6000 nM	60%	–	11000 nM	–	–	OC(c1ccccc1)(c1ccc2nc(Cl)c(-c3ccccc3Cl)c(Cl)c2c1)c1ncco1 (stereo not drawn) [Example 74, (2,4-Dichloro-3-(2-chlorophenyl)quinolin-6-yl)(oxazol-2-yl)(phenyl)methanol]	–
2900 nM	99%	–	14000 nM	–	–	N#Cc1nc2ccc(C(O)(c3ccc(C(F)(F)F)nc3)c3cccc(Cl)c3)cc2cc1-c1ccccc1 (stereo not drawn) [Example 75, 6-((3-Chlorophenyl)(hydroxy)(6-(trifluoromethyl)pyridin-3-yl)methyl)-3-phenylquinoline-2-carbonitrile]	–
~2000 nM	80%	–	18000 nM	–	–	N#Cc1nc2ccc(C(O)(c3cccc(Cl)c3)c3ccnc(C(F)(F)F)c3)cc2c(C#N)c1-c1ccccc1 (stereo not drawn) [Example 76, 6-((3-Chlorophenyl)(hydroxy)(2-(trifluoromethyl)pyridin4-yl)methyl)-3-phenylquinoline-2,4-dicarbonitrile]	–
> 6000 nM	48%	–	12000 nM	–	–	OC(c1cccc(Cl)c1)(c1ccnc(C(F)(F)F)c1)c1ccc2nc(Cl)c(-c3ccccc3)c(Cl)c2c1 (stereo not drawn) [Example 77, (3-Chlorophenyl)(2,4-dichloro-3-phenylquinolin-6-yl)(2-(trifluoromethyl)pyridin-4-yl)methanol]	–
> 6000 nM	33%	–	14000 nM	–	–	CN1CCC(C(O)(c2cccnc2)c2ccc3nc(Cl)c(-c4ccccc4)c(Cl)c3c2)CC1 (stereo not drawn) [Example 78, (2,4-Dichloro-3-phenylquinolin-6-yl)(1-methylpiperidin4-yl)(pyridin-3-yl)methanol•TFA]	–
> 6000 nM	72%	–	12000 nM	–	–	CCCCc1c(-c2ccccc2)c(OC(C)C)nc2ccc(C(O)(c3ccncc3)c3cncn3C)cc12 (stereo not drawn) [Example 80, (4-Butyl-2-isopropoxy-3-phenylquinolin-6-yl)(1-methyl-1H-imidazol-5-yl)(pyridin4-yl)methanol•TFA]	–
> 6000 nM	18%	–	11000 nM	–	–	CNCCN(C)c1nc2ccc(C(O)(c3ccncc3)c3cncn3C)cc2c(Cl)c1-c1ccccc1 (stereo not drawn) [Example 82]	–
3500 nM	93%	–	17000 nM	–	–	CN(C)c1nc2ccc(C(O)(c3ccncc3)c3ccccn3)cc2c(Cl)c1-c1ccccc1 (stereo not drawn) [Example 84, (4-Chloro-2-(dimethylamino)-3-phenylquinolin-6-yl)(pyridin-2-yl)(pyridin4-yl)methanol•TFA]	–
3500 nM	81%	–	20000 nM	–	–	CN(C)c1c(-c2ccccc2)c(Cl)nc2ccc(C(O)(c3ccccn3)c3cncn3C)cc12 (stereo not drawn) [Example 85, (2-Chloro-4-(dimethylamino)-3-phenylquinolin-6-yl)(1-methyl-1H-imidazol-5-yl)(pyridin-2-yl)methanol•TFA]	–
> 6000 nM	56%	–	12000 nM	–	–	Cc1nc(C)c(C(O)(c2ccc(Cl)cc2)c2ccc3nc(Cl)c(-c4ccccc4)c(Cl)c3c2)s1 (stereo not drawn) [Example 87, (4-Chlorophenyl)(2,4-dichloro-3-phenylquinolin-6-yl)(2,4-dimethylthiazol-5-yl)methanol]	–
> 6000 nM	32%	–	20000 nM	–	–	COc1nc2ccc(C(O)(c3ncccn3)c3cncn3C)cc2c(OC)c1-c1ccccc1 (stereo not drawn) [Example 88, (2,4-Dimethoxy-3-phenylquinolin-6-yl)(1-methyl-1H-imidazol-5-yl)(pyrimidin-2-yl)methanol]	–
> 6000 nM	0%	–	21000 nM	–	–	OC(c1cccnc1)(c1ccc2nc(Cl)c(-c3ccccc3)c(Cl)c2c1)C1CCNCC1 (stereo not drawn) [Example 91, (2,4-Dichloro-3-phenylquinolin-6-yl)(piperidin-4-yl)(pyridin-3-yl)methanol•TFA]	–
